Assay results taken from patent publication US5654179A, “Nucleic acid preparation methods” (HRI Research, Inc., priority 1994, dated 1997).
Like-named read-outs stand apart in the source and are kept apart here.

What was measured:
[1] = system: reverse transcriptase purified from arian myeloblastosis virus; conditions: cited from earlier work
T4 DNA ligase = conditions: dilution, dialysis, or sucrose gradient centrifugation of cell-free extracts; cited from earlier work
[2] = system: DNA ligase from mouse erythroleukemia (MEL) cells; conditions: dilution, dialysis, or sucrose gradient centrifugation of cell-free extracts; cited from earlier work
[3] = system: DNA-cytoplasmic DNA polymerase complex; conditions: cited from earlier work
[4] = system: NAD-dependent DNA ligase from E. coli; conditions: cited from earlier work
DNA ligase = conditions: cited from earlier work
Taq polymerase [5] = conditions: cited from earlier work
[6] = system: virion-associated reverse transcriptase (RTase) of murine leukemia virus (MuLV); conditions: cited from earlier work
Taq polymerase [7] = type: biochemical
Protocol: (§1) Generally, PCR was carried out using 175-200 μM dNTPS (deoxyribonucleoside 5'-triphosphates) and 0.5 to 1.0 μM primers. Five units/100 μl of Taq polymerase were used. PCR reactions were overlaid with 30-100 μl light mineral oil. A typical PCR cycle for HIV amplification using a Perkin-Elmer Cetus DNA Thermal Cycler (Part No. N8010150) was: denaturation at 95° C. for 30 seconds; annealing at 55° C. for 30 seconds; and extension at 72° C. for 1 minute. PCR cycles were normally carried out in this manner for 35 cycles followed by 7 minutes at 72° C.
In some instances below, amplification of human histocompatibility (HLA) Class II genes was performed using primer pair GH26 (SEQ ID NO:2) and GH27 (SEQ ID NO:3) and human placental DNA to produce a 242-mer product (SEQ ID NO: 4). These primers and other primers are described in PCR Protocols: A Guide To Methods and Applications, Innis, M. A. et al. eds., pp. 261-271 (1990)).
Whole blood was prepared according to Mode III (see FIG. 1). Whole blood samples (100 μl) were lysed with protease K (0.5 mg/ml, 55° C. for 1 hour). The enzyme was inactivated by heating (95°-100°C., 10 minutes). Four sets of reactions were then set up involving the addition of interfering reagent to the protease lysate: 1) transferrin with 10 mM sodium bicarbonate; 2) transferrin with 20 mM sodium bicarbonate; 3) serum albumin with 10 mM sodium bicarbonate; and 4) serum albumin with no cofactor. These reaction were performed at room temperature for thirty minutes using a concentration range for transferrin and serum albumin (10, 25, 50, 75, 100, 150, 200 and 250 μg per 20 μl PCR rxn). PCR was then set up using the primer pair GH26/GH27 to produce a 242-mer product (see above). Two standard control reactions were run in separate tubes: i) a no nucleic acid target control; and 2) a positive control (human placental DNA). Four additional control lanes were run: 1) no inhibitor treatment (two lanes); 2) 10 mM sodium bicarbonate only (one lane); and 3) 50 μg transferrin only (one lane); and 4) transferrin with 10 mM sodium bicarbonate (two lanes). PCR was carried out for 35 cycles. The PCR products were thereafter electrophoresed (agarose) and visualized with ethidium bromide staining. The two above-named control reactions were electrophoresed in lanes 9 and 10 of FIG. 16A, respectively, as well as lanes 17 and 18 of FIG. 16B, respectively. In FIG. 16C, the positive control is in lane 1 and the negative control is in lane 2.
Whole blood was prepared according to Mode III (see FIG. 1). Whole blood samples (20 μl) were lysed with protease K (0.5 mg/ml, 55° C. for 1 hour). The enzyme was inactivated by heating (95°-100° C., 10 minutes). Reactions were then set up involving the addition of bovine transferrin or serum albumin with various cofactors, including bicarbonate ion, azide ion, thiocyanate ion, cyanate ion, oxalate ion, malonate ion, glycinate ion, and thioglycolate ion. These reaction were performed at room temperature for thirty minutes. PCR was then set up using the using primer pair GH26/GH27 to produce a 242-mer product (see above). PCR was carried out for 35 cycles. The PCR products were thereafter electrophoresed (agarose) and visualized with ethidium bromide staining.

Taq polymerase [8] = test: PCR inhibition, SK38/39 system, 115-mer product on ethidium bromide gel or autoradiograph; type: biochemical
Protocol: as §1
In other cases, amplification of HIV sequences was performed using primer pair SK-38 (SEQ ID NO:5) and SK-39 (SEQ ID NO:6) and 115-mer (SEQ ID NO:7) as target to produce a 115-mer product.
Where agarose gel electrophoresis was used, the PCR products were fractionated by electrophoresis through a 3% Nusieve/1% agarose gel in TBE buffer. Electrophoresis was typically carried out in a constant voltage of 8-10 V/cm. Following agarose gel electrophoresis, individual bands were, in most cases, visualized by ethidium bromide staining. This involved staining the agarose gel with 1 μg/ml ethidium bromide in TBE for 30 minutes followed by destaining the agarose gel with TBE for 30 minutes.
The chemical reaction was performed as follows. Two aliquots (30 mg/aliquot) of sodium borohydride (NaBH4) were added at ten minute intervals to 1 ml of 200 μM hematin (Sigma) in 1M Tris (pH 8.0) under argon in the dark. The pH was adjusted to 6.0 between additions. At the end of the reaction (20 minutes) the pH was adjusted to 1.0 and then neutralized to pH 7.0. Six aliquots (5 μl) of the product of the reaction corresponding to different amounts of reacted hematin (37.5 μM, 7.5 μM, 1.5 μM, 0.3 μM, 0.06 μM, 0.012 μM) were added to standard (20 μl) PCR reactions in different tubes using the SK38/39 system (see above). Three standard control reactions were run in separate tubes: i) a no nucleic acid target control; ii) a no primer control; and iii) a positive control (no hematin). In addition, unreacted hematin was added to four different tubes in different amounts (50 μM, 5 μM, 0.5 μM, and 0.05 μM). PCR was carried out for 30 cycles. The PCR products were thereafter electrophoresed (agarose) and visualized with ethidium bromide staining (FIG. 2A, lanes 1-13). The three above-named control reactions were electrophoresed in lanes 1, 2 and 3, respectively. […] The unreacted hematin tubes (lanes 4-7) show no product until hematin is present at a very low concentration (0.05 μM, lane 7), at which point product is evident. […] Indeed, product is evident where 1.5 μM reacted hematin or less was present. […] A score (i.e., % maximum intensity of a positive control) was given to each band. An OD unit of 1.0 corresponds to 100% of maximum intensity. After examination of a plot of the estimated OD units to the concentration of hematin (expressed in the log scale) in these PCR reactions, it is clear that approximately a thirty-fold concentration difference was achieved (reacted to unreacted).
The photochemical reaction was performed as follows. Stock biliverdin (Sigma, 5 mM) was diluted in solution (50 mM Tris pH 7.8) to a final concentration of 200 μM. Two aliquots (300 μl) were then made. One aliquot was left unreacted. The other aliquot was exposed to ultraviolet radiation from an HRI-100 for 16 hours using the industry standard, F8T5BL hot cathode dual bipin lamps. Thereafter, both the unirradiated and irradiated materials were added (5 μl) to standard (20 μl) PCR reactions in different tubes using the SK38/39 system (see above) and 10^9 copies of 115-mer target. Three standard control reactions were run in separate tubes: i) a no nucleic acid target control; ii) a positive control (no biliverdin); and iii) a no Taq control. PCR was carried out for thirty (30) cycles. The PCR products were thereafter electrophoresed (agarose) and visualized with ethidium bromide staining (FIG. 3A, lanes 1-5). […]

Taq polymerase [9] = test: PCR from boiled whole blood with or without transferrin; type: biochemical; conditions: with transferrin; without transferrin inhibited above 1 μl
Protocol: Experiment 1. Whole blood (200 μl) was boiled for 10 minutes then briefly centrifuged to precipitate the solid coagulated mass which formed. The supernatant layer was then used directly for PCR amplification (1, 2, 3, 4, or 5 μl), either with or without transferrin. […] An aliquot of 5 μl whole blood processed by Mode III gave a very intense signal, indicating the advantage of the method over the boiling method, which provided no signal at all with a 5 μl aliquot.

[10] = in the presence of an anion (such as HCO3^-); cited from earlier work
[11] = Transferrin binding of heme
From the text: This is lower than that expected from the molar ratio for transferrin to iron binding of 0.5. Second, there is the question of the central metal ion: the central metal iron was found not to be required for the transferrin-mediated phenomenon of the present invention.

Taq polymerase [12] = test: HIV PCR after inhibitor treatment of whole blood lysate; type: biochemical; conditions: Mode III, transferrin with sodium bicarbonate
Protocol: The enzyme was inactivated by heating (95°-100° C., 10 minutes).

Substance: hemin
- inhibition of reverse transcriptase from myeloblastosis virus [1]: does not inhibit
- reversibility of inhibition of T4 DNA ligase (T4 DNA ligase): not reversible
- reversibility of inhibition of DNA ligase [2]: not reversible
- complete inhibition of the formation of DNA-enzyme complex [3]: ≥ 12 µM
- mode of inhibition of DNA synthesis [3]: competitive with respect to template and noncompetitive with respect to substrate
- concentration up to which E. coli DNA ligase was not inhibited [4]: up to 150 μM
- concentration that does not affect DNA ligase activity or DNA substrate integrity (DNA ligase): ≤ 4 µM
- IC50 (DNA ligase; pre-incubation, depending on the source of the DNA ligase, read-out: half-maximal inhibition of DNA ligase): 25 to 100 µM
- inhibition of PCR / Taq polymerase (Taq polymerase [5]): inhibit
- reversibility of inhibition of MuLV RTase [6]: reversible inhibitor

Substance: transferrin: blood serum component, an iron transport protein
- PCR product (Taq polymerase [7]; 10 μg per 20 μl PCR rxn, with cofactor): No product is visible
- PCR product (Taq polymerase [7]; 25 μg per 20 μl PCR rxn, with cofactor): faint product band
- PCR product (Taq polymerase [7]; 50 μg transferrin alone): No product is visible
- PCR product (Taq polymerase [7]; 50 μg transferrin with 10 mM cofactor): Strong product bands
- PCR product (Taq polymerase [7]; higher concentration of the cofactor (20 mM sodium bicarbonate), lanes 11-18): not as apparent
- PCR product (Taq polymerase [7]; higher concentrations (50 to 250 μg, lanes 3-8), with cofactor): Strong product bands
- PCR product in presence of protoporphyrin (Taq polymerase [8]): product is visible
- aliquot of boiled whole blood supernatant up to which signal was provided (Taq polymerase [9]): ≤ 3 µL
- capacity to take up iron atoms [10]: 2 iron atoms per molecule
- molar ratio of transferrin to heme at which transferrin is most effective in binding heme [11]: < 0.27
- amplification specificity (Taq polymerase [12]): improves the specificity of the reaction
